Laboratory results from patent publication US20250230147A1, “LACTAMS AS CBL-B INHIBITORS” (Genentech, Inc., priority 2021, published 2025).
Structures can show the parent of a compound that is named as a salt. Where two headings read alike, the source gives them in different places.

How the values were obtained:
[1] = target: Cbl-b (Homo sapiens (Human), UniProt Q13191); test: Cbl-b LCK Ub TR-FRET assay (Cbl-b Lck HTRF); format: biochemical
How it was run: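 TR-FRET (340 nm excitation, 615/665 nm emission) read after adding HA-ubiquitin–UBE2D2 thioester, anti-HA-D2 and streptavidin-Eu. Beforehand, compounds incubated 60 min with biotinylated Cbl-b, then 90 min with His-LCK and ATP (1 mM in 2× mix); IC50 from 10 concentrations, DMSO high and no-LCK low controls.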

[2] = target: c-Cbl (Homo sapiens (Human), UniProt P22681); test: C-Cbl LCK Ub TR-FRET assay (c-cbl Lck HTRF); format: biochemical; details: for (fold-selectivity): C-cbl Lck HTRF IC50 relative to Cbl-b Lck HTRF IC50
How it was run: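 Detection reagents added, brief spin, 20 min RT. IC50 fit normalized to no-LCK (low) and DMSO (high) controls.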

Chain of Cbl-b (Q13191 40-426): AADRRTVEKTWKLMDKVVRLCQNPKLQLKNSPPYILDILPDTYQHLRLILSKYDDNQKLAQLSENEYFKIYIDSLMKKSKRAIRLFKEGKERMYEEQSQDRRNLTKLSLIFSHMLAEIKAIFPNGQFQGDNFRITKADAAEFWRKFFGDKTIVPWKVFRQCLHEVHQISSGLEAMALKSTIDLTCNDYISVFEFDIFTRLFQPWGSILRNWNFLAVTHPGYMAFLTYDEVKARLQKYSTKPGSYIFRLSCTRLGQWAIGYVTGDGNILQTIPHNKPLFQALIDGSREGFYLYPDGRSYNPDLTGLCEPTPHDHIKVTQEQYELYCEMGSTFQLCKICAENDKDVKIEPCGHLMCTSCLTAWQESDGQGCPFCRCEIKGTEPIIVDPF
Chain of c-Cbl (P22681 47-435): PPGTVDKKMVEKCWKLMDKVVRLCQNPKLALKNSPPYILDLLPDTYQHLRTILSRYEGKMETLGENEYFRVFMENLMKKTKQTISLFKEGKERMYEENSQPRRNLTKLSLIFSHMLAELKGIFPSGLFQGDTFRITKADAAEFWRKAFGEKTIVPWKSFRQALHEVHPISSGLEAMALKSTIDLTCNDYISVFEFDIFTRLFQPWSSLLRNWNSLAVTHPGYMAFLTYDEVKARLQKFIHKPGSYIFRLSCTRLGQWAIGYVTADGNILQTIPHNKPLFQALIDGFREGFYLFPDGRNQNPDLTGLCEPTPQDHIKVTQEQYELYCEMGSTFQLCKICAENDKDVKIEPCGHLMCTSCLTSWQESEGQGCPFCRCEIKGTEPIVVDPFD

Compound	IC50 [1] [nM]	IC50 [2] [nM]	(fold-selectivity) [2]	IC50 ([1]; formate) [nM]	IC50 ([2]; formate) [nM]
CC(C)[C@H]1CN(C)CCN1Cc1cc2c(c(C(F)(F)F)c1)CN(c1cc(C3(Cc4nncn4C)CCC3)cc(NC(=O)CCl)n1)C2=O [Compound 333, (S)-2-chloro-N-(6-(6-((2-isopropyl-4-methylpiperazin-1-yl)methyl)-1-oxo-4-(trifluoromethyl)isoindolin-2-yl)-4-(1-((4-methyl-4H-1,2,4-triazol-3-yl)methyl)cyclobutyl)pyridin-2-yl)acetamide]	52	53	(1.0x)		
Cn1cnnc1[C@@H](F)C1(c2cccc(N3Cc4c(cc(CN5CCC[C@@H](CO)C5)cc4C(F)(F)F)C3=O)c2)COC1 [Compound 152, 2-(3-(3-((S)-fluoro(4-methyl-4R-1,2,4-triazol-3-yl)methyl)oxetan-3-yl)phenyl)-6-(((R)-3-(hydroxymethyl)piperidin-1-yl)methyl)-4-(trifluoromethyl)isoindolin-1-one]	220	280	1.3x		
CN1CC2CC(C1)N2Cc1cc2c(c(C(F)(F)F)c1)CN(c1cccc(C3(Cc4nncn4C)CC(F)(F)C3)c1)C2=O [Compound 413, 2-(3-(3,3-difluoro-1-((4-methyl-4H-1,2,4-triazol-3-yl)methyl)cyclobutyl)phenyl)-6-((3-methyl-3,6-diazabicyclo[3.1.1]heptan-6-yl)methyl)-4-(trifluoromethyl)isoindolin-1-one formate]				56	50
CC(=O)N1CCN(Cc2cc3c(c(C(F)(F)F)c2)CN(c2cccc(C4([C@H](F)c5nncn5C)COC4)c2)C3=O)[C@@H](C(C)C)C1 [Compound 194, 6-(((S)-4-acetyl-2-isopropylpiperazin-1-yl)methyl)-2-(3-(3-((S)-fluoro(4-methyl-4H-1,2,4-triazol-3-yl)methyl)oxetan-3-yl)phenyl)-4-(trifluoromethyl)isoindolin-1-one]	270	810	3.0x		
CCNCc1cc2c(c(C(F)(F)F)c1)CN(c1cccc(C3([C@@H](F)c4nncn4C)COC3)c1)C2=O [Compound 213, (R)-6-((ethylamino)methyl)-2-(3-(3-(fluoro(4-methyl-4H-1,2,4-triazol-3-yl)methyl)oxetan-3-yl)phenyl)-4-(trifluoromethyl)isoindolin-1-one]	38	61	1.6x		
CCOc1cc([C@H](C)Cc2nncn2C)cc(N2Cc3c(cc(CN4CCC5(CC5)C4)cc3C(F)(F)F)C2=O)n1 [Compound 56, (R)-6-((5-azaspiro[2.4]heptan-5-yl)methyl)-2-(6-ethoxy-4-(1-(4-methyl-4H-1,2,4-triazol-3-yl)propan-2-yl)pyridin-2-yl)-4-(trifluoromethyl)isoindolin-1-one formate]	16	22			
CC(C)[C@H]1CN(C)CCN1Cc1cc2c(c(C(F)(F)F)c1)CN(c1cccc(C3([C@H](F)c4nncn4C4CC4)COC3)c1)C2=O [Compound 487, 2-(3-(3-((S)-(4-cyclopropyl-4H-1,2,4-triazol-3-yl)fluoromethyl)oxetan-3-yl)phenyl)-6-(((S)-2-isopropyl-4-methylpiperazin-1-yl)methyl)-4-(trifluoromethyl)isoindolin-1-one]	1800	2700	(1.5x)		
CC(C)[C@H]1CN(Cc2cc3c(c(C(F)(F)F)c2)CN(c2cccc(C4([C@H](F)c5nncn5C)COC4)c2)C3=O)CCN1 [Compound 91]	140	170	1.2x		
COC[C@@H]1CCCN1Cc1cc2c(c(C(F)(F)F)c1)CN(c1cccc(C3([C@H](F)c4nncn4C)COC3)c1)C2=O [Compound 160, 2-(3-(3-((S)-fluoro(4-methyl-4H-1,2,4-triazol-3-yl)methyl)oxetan-3-yl)phenyl)-6-(((S)-2-(methoxymethyl)pyrrolidin-1-yl)methyl)-4-(trifluoromethyl)isoindolin-1-one]	1400	2300	1.7x		
Cn1cnnc1[C@H](F)C1(c2cccc(N3Cc4c(cc(CNCC5CC5)cc4C(F)(F)F)C3=O)c2)CC(F)(F)C1 [Compound 449, (R)-6-(((cyclopropylmethyl)amino)methyl)-2-(3-(3,3-difluoro-1-(fluoro(4-methyl-4H-1,2,4-triazol-3-yl)methyl)cyclobutyl)phenyl)-4-(trifluoromethyl)isoindolin-1-one]	20	21	(1.1x)		
CCCCc1cc(C2(Cc3nncn3C)CCC2)cc(N2Cc3c(cc(CNC4(C)CCC4)cc3C(F)(F)F)C2=O)n1 [Compound 346, 2-(6-butyl-4-(1-((4-methyl-4H-1,2,4-triazol-3-yl)methyl)cyclobutyl)pyridin-2-yl)-6-(((1-methylcyclobutyl)amino)methyl)-4-(trifluoromethyl)isoindolin-1-one]	11	10	(0.92x)		
CC(C)NCc1cc2c(c(C(F)(F)F)c1)CN(c1cccc(C3([C@@H](F)c4nncn4C)CC(F)(F)C3)c1)C2=O [Compound 417, (R)-2-(3-(3,3-difluoro-1-(fluoro(4-methyl-4H-1,2,4-triazol-3-yl)methyl)cyclobutyl)phenyl)-6-((isopropylamino)methyl)-4-(trifluoromethyl)isoindolin-1-one]	57	52	(0.93x)		
Cn1cnnc1[C@@H](F)C1(c2cccc(N3Cc4c(cc(CNCCCF)cc4C(F)(F)F)C3=O)c2)CC(F)(F)C1 [Compound 448, (S)-2-(3-(3,3-difluoro-1-(fluoro(4-methyl-4H-1,2,4-triazol-3-yl)methyl)cyclobutyl)phenyl)-6-(((3-fluoropropyl)amino)methyl)-4-(trifluoromethyl)isoindolin-1-one]	14	16	(1.1x)		
CC(C)N(C)Cc1cc2c(c(C(F)(F)F)c1)CN(c1cccc(C3([C@@H](F)c4nncn4C)CC(F)(F)C3)c1)C2=O [Compound 419, (R)-2-(3-(3,3-difluoro-1-(fluoro(4-methyl-4H-1,2,4-triazol-3-yl)methyl)cyclobutyl)phenyl)-6-((isopropyl(methyl)amino)methyl)-4-(trifluoromethyl)isoindolin-1-one]	360	420	(1.2x)		
Cn1cnnc1[C@H](F)C1(c2cccc(N3Cc4c(cc(CN)cc4C(F)(F)F)C3=O)c2)CC(F)(F)C1.O=CO [Compound 393, (R)-6-(aminomethyl)-2-(3-(3,3-difluoro-1-(fluoro(4-methyl-4H-1,2,4-triazol-3-yl)methyl)cyclobutyl)phenyl)-4-(trifluoromethyl)isoindolin-1-one formate]	130	170	(1.3x)		
Cn1cnnc1CC1(c2cc(C3CC3)nc(N3Cc4c(cc(CNC5(C)CCC5)cc4C(F)(F)F)C3=O)c2)COC1 [Compound 300, 2-(6-cyclopropyl-4-(3-((4-methyl-4H-1,2,4-triazol-3-yl)methyl)oxetan-3-yl)pyridin-2-yl)-6-(((1-methylcyclobutyl)amino)methyl)-4-(trifluoromethyl)isoindolin-1-one]	5.6	4.7	(0.83x)		
Cn1cnnc1[C@@H](F)C1(c2cccc(N3Cc4c(cc(CNC5(C)CCC5)cc4C(F)(F)F)C3=O)c2)CC(F)(F)C1 [Compound 465, (S)-2-(3-(3,3-difluoro-1-(fluoro(4-methyl-4H-1,2,4-triazol-3-yl)methyl)cyclobutyl)phenyl)-6-(((1-methylcyclobutyl)amino)methyl)-4-(trifluoromethyl)isoindolin-1-one]	14	13	(0.90x)		
Cn1cnnc1CC1(c2cc(C3CCC3)nc(N3Cc4c(cccc4C(F)(F)F)C3=O)c2)COC1 [Compound 265, 2-(6-cyclobutyl-4-(3-((4-methyl-4H-1,2,4-triazol-3-yl)methyl)oxetan-3-yl)pyridin-2-yl)-4-(trifluoromethyl)isoindolin-1-one]	880	1300	(1.4x)		
Cn1cnnc1[C@H](F)C1(c2cccc(N3Cc4c(cc(CC5CNC5)cc4C(F)(F)F)C3=O)c2)COC1 [Compound 57, (R)-6-(azetidin-3-ylmethyl)-2-(3-(3-(fluoro(4-methyl-4H-1,2,4-triazol-3-yl)methyl)oxetan-3-yl)phenyl)-4-(trifluoromethyl)isoindolin-1-one]	49	67	1.4x		
C=CC(=O)Nc1cc(C2(Cc3nncn3C)CCC2)cc(N2Cc3c(cc(CN4CCN(C)C[C@@H]4C(C)C)cc3C(F)(F)F)C2=O)n1 [Compound 239, (S)—N-(6-(6-((2-isopropyl-4-methylpiperazin-1-yl)methyl)-1-oxo-4-(trifluoromethyl)isoindolin-2-yl)-4-(1-((4-methyl-4H-1,2,4-triazol-3-yl)methyl)cyclobutyl)-pyridin-2-yl)acrylamide]	35	48	(1.4x)		
Cn1cnnc1C(F)(F)C1(c2cccc(N3Cc4c(cc(CN)cc4C(F)(F)F)C3=O)c2)CC(F)(F)C1 [Compound 399, 6-(aminomethyl)-2-(3-(1-(difluoro(4-methyl-4H-1,2,4-triazol-3-yl)methyl)-3,3-difluorocyclobutyl)phenyl)-4-(trifluoromethyl)isoindolin-1-one]	510	430	(0.84x)		
